Source: ChEMBL document CHEMBL4804284
Active and inactive are the calls of the source. No cut-off for these calls is given here.

How the values were obtained:
[1] = target: Tyrosine-protein kinase Fyn (Homo sapiens) (UniProt P06241); experiment: Inhibition of DNA-tagged human FYN assessed as percent of control at 50000 nM by qPCR analysis relative to control; set-up: scale not given: the % may be the effect or the level left
[2] = system: Receptor-type tyrosine-protein kinase FLT3 (Homo sapiens), P36888 [N841I]; experiment: Inhibition of DNA-tagged human FLT3 N841I mutant assessed as percent of control at 50000 nM by qPCR analysis relative to control; set-up: scale not given: the % may be the effect or the level left
[3] = target: Receptor-type tyrosine-protein kinase FLT3 (Homo sapiens) (UniProt P36888); experiment: Inhibition of DNA-tagged human FLT3 assessed as percent of control at 50000 nM by qPCR analysis relative to control; set-up: scale not given: the % may be the effect or the level left
[4] = target: Fibroblast growth factor receptor 2 (Homo sapiens) (UniProt P21802); experiment: Inhibition of DNA-tagged human FGFR2 assessed as percent of control at 50000 nM by qPCR analysis relative to control; set-up: scale not given: the % may be the effect or the level left
[5] = target: Mitogen-activated protein kinase 1 (Homo sapiens) (UniProt P28482); experiment: Inhibition of DNA-tagged human ERK2 assessed as percent of control at 50000 nM by qPCR analysis relative to control; set-up: scale not given: the % may be the effect or the level left
[6] = target: Receptor tyrosine-protein kinase erbB-3 (Homo sapiens) (UniProt P21860); experiment: Inhibition of DNA-tagged human ERBB3 assessed as percent of control at 50000 nM by qPCR analysis relative to control; set-up: scale not given: the % may be the effect or the level left
[7] = target: Ephrin type-B receptor 3 (Homo sapiens) (UniProt P54753); experiment: Inhibition of DNA-tagged human EPHB3 assessed as percent of control at 50000 nM by qPCR analysis relative to control; set-up: scale not given: the % may be the effect or the level left
[8] = system: Epidermal growth factor receptor (Homo sapiens), P00533 [UNDEFINED MUTATION]; experiment: Inhibition of DNA-tagged human EGFR S752-1759del mutant assessed as percent of control at 50000 nM by qPCR analysis relative to control; set-up: scale not given: the % may be the effect or the level left
[9] = target: Casein kinase I isoform gamma-3 (Homo sapiens) (UniProt Q9Y6M4); experiment: Inhibition of DNA-tagged human CSNK1G3 assessed as percent of control at 50000 nM by qPCR analysis relative to control; set-up: scale not given: the % may be the effect or the level left
[10] = target: Dual specificity protein kinase CLK4 (Homo sapiens) (UniProt Q9HAZ1); experiment: Inhibition of DNA-tagged human CLK4 assessed as percent of control at 50000 nM by qPCR analysis relative to control; set-up: scale not given: the % may be the effect or the level left
[11] = target: Cyclin-dependent kinase 4/cyclin D1 (Homo sapiens) (UniProt P11802+P24385); experiment: Inhibition of DNA-tagged human CDK4/cyclin D1 assessed as percent of control at 50000 nM by qPCR analysis relative to control; format: protein-complex assay; set-up: scale not given: the % may be the effect or the level left
[12] = target: Cyclin-dependent kinase 13 (Homo sapiens) (UniProt Q14004); experiment: Inhibition of DNA-tagged human CDC2L5 assessed as percent of control at 50000 nM by qPCR analysis relative to control; set-up: scale not given: the % may be the effect or the level left
[13] = target: Calcium/calmodulin-dependent protein kinase type II subunit alpha (Homo sapiens) (UniProt Q9UQM7); experiment: Inhibition of DNA-tagged human CAMK2A assessed as percent of control at 50000 nM by qPCR analysis relative to control; set-up: scale not given: the % may be the effect or the level left
[14] = target: 5'-AMP-activated protein kinase catalytic subunit alpha-2 (Homo sapiens) (UniProt P54646); experiment: Inhibition of DNA-tagged human AMPK-alpha2 assessed as percent of control at 50000 nM by qPCR analysis relative to control; set-up: scale not given: the % may be the effect or the level left
[15] = target: Atypical kinase COQ8B, mitochondrial (Homo sapiens) (UniProt Q96D53); experiment: Inhibition of DNA-tagged human ADCK4 assessed as percent of control at 50000 nM by qPCR analysis relative to control; set-up: scale not given: the % may be the effect or the level left
MV4-11 = experiment: Cytotoxicity against human MV4-11 cells at 0.1-100 uM assessed as decrease in cell viability relative to control; format: functional, cell-based
[16] = target: Serine/threonine-protein kinase 10 (Homo sapiens) (UniProt O94804); experiment: Inhibition of DNA-tagged human LOK assessed as percent of control at 50000 nM by qPCR analysis relative to control; set-up: scale not given: the % may be the effect or the level left
[17] = target: MAP/microtubule affinity-regulating kinase 4 (Homo sapiens) (UniProt Q96L34); experiment: Inhibition of DNA-tagged human MARK4 assessed as percent of control at 50000 nM by qPCR analysis relative to control; set-up: scale not given: the % may be the effect or the level left
[18] = target: Maternal embryonic leucine zipper kinase (Homo sapiens) (UniProt Q14680); experiment: Inhibition of DNA-tagged human MELK assessed as percent of control at 50000 nM by qPCR analysis relative to control; set-up: scale not given: the % may be the effect or the level left
[19] = target: Cyclin-dependent kinase 2 homolog (Plasmodium falciparum (isolate K1 / Thailand)) (UniProt Q07785); experiment: Inhibition of DNA-tagged Plasmodium falciparum PFPK5 assessed as percent of control at 50000 nM by qPCR analysis relative to control; set-up: scale not given: the % may be the effect or the level left
[20] = target: Phosphatidylinositol 4-phosphate 5-kinase type-1 gamma (Homo sapiens) (UniProt O60331); experiment: Inhibition of DNA-tagged human PIP5K1C assessed as percent of control at 50000 nM by qPCR analysis relative to control; set-up: scale not given: the % may be the effect or the level left
[21] = target: Protein kinase C eta type (Homo sapiens) (UniProt P24723); experiment: Inhibition of DNA-tagged human PRKCH assessed as percent of control at 50000 nM by qPCR analysis relative to control; set-up: scale not given: the % may be the effect or the level left
[22] = target: Protein kinase C iota type (Homo sapiens) (UniProt P41743); experiment: Inhibition of DNA-tagged human PRKCI assessed as percent of control at 50000 nM by qPCR analysis relative to control; set-up: scale not given: the % may be the effect or the level left
[23] = target: Protein kinase C theta type (Homo sapiens) (UniProt Q04759); experiment: Inhibition of DNA-tagged human PRKCQ assessed as percent of control at 50000 nM by qPCR analysis relative to control; set-up: scale not given: the % may be the effect or the level left
[24] = target: Interferon-induced, double-stranded RNA-activated protein kinase (Homo sapiens) (UniProt P19525); experiment: Inhibition of DNA-tagged human PRKR assessed as percent of control at 50000 nM by qPCR analysis relative to control; set-up: scale not given: the % may be the effect or the level left
[25] = target: Ribosomal protein S6 kinase alpha-5 (Homo sapiens) (UniProt O75582); experiment: Inhibition of DNA-tagged human C-terminal RPS6KA5 kinase domain 2 assessed as percent of control at 50000 nM by qPCR analysis relative to control; set-up: scale not given: the % may be the effect or the level left
[26] = target: Uncharacterized serine/threonine-protein kinase SBK3 (Homo sapiens) (UniProt P0C264); experiment: Inhibition of DNA-tagged human SgK110 assessed as percent of control at 50000 nM by qPCR analysis relative to control; set-up: scale not given: the % may be the effect or the level left
[27] = target: SRSF protein kinase 2 (Homo sapiens) (UniProt P78362); experiment: Inhibition of DNA-tagged human SRPK2 assessed as percent of control at 50000 nM by qPCR analysis relative to control; set-up: scale not given: the % may be the effect or the level left
[28] = target: Tyrosine-protein kinase receptor Tie-1 (Homo sapiens) (UniProt P35590); experiment: Inhibition of DNA-tagged human TIE1 assessed as percent of control at 50000 nM by qPCR analysis relative to control; set-up: scale not given: the % may be the effect or the level left
[29] = target: NT-3 growth factor receptor (Homo sapiens) (UniProt Q16288); experiment: Inhibition of DNA-tagged human TRKC assessed as percent of control at 50000 nM by qPCR analysis relative to control; set-up: scale not given: the % may be the effect or the level left

Sequence of Dual specificity protein kinase CLK4 (Homo sapiens) (Q9HAZ1 whole entry, looked up): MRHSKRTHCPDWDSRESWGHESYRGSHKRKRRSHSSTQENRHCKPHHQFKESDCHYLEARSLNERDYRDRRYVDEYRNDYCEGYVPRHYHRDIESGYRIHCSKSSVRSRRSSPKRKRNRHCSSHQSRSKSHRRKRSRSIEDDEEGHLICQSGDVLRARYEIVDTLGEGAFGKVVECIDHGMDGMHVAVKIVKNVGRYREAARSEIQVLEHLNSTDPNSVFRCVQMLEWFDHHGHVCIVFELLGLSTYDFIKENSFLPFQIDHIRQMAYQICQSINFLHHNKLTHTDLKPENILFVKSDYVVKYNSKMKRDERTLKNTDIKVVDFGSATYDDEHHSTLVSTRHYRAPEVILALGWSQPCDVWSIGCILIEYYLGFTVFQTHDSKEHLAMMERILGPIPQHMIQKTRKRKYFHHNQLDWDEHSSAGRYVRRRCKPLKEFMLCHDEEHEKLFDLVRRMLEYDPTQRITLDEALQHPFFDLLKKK
Sequence of Calcium/calmodulin-dependent protein kinase type II subunit alpha (Homo sapiens) (Q9UQM7 whole entry): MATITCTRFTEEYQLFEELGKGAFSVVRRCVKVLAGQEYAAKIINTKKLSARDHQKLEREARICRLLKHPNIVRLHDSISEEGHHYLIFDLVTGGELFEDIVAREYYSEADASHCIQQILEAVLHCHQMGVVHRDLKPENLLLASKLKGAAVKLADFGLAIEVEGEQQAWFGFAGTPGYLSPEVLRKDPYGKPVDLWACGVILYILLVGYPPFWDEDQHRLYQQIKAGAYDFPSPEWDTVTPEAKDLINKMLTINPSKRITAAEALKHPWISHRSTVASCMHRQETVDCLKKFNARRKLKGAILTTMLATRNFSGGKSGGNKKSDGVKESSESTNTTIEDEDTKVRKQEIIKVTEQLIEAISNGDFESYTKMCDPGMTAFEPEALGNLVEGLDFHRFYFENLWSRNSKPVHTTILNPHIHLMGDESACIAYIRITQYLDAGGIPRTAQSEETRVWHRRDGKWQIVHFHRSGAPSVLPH
Sequence of Cyclin-dependent kinase 2 homolog (Plasmodium falciparum (isolate K1 / Thailand)) (Q07785 whole entry): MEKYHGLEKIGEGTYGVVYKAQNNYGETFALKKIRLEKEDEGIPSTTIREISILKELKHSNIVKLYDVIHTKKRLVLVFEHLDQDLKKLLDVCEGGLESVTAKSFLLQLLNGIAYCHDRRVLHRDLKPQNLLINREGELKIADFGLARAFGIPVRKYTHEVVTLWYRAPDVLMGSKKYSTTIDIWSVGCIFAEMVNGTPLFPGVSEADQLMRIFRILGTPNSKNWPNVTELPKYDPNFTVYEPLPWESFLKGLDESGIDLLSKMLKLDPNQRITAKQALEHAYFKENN
Sequence of Serine/threonine-protein kinase 10 (Homo sapiens) (O94804 whole entry, looked up): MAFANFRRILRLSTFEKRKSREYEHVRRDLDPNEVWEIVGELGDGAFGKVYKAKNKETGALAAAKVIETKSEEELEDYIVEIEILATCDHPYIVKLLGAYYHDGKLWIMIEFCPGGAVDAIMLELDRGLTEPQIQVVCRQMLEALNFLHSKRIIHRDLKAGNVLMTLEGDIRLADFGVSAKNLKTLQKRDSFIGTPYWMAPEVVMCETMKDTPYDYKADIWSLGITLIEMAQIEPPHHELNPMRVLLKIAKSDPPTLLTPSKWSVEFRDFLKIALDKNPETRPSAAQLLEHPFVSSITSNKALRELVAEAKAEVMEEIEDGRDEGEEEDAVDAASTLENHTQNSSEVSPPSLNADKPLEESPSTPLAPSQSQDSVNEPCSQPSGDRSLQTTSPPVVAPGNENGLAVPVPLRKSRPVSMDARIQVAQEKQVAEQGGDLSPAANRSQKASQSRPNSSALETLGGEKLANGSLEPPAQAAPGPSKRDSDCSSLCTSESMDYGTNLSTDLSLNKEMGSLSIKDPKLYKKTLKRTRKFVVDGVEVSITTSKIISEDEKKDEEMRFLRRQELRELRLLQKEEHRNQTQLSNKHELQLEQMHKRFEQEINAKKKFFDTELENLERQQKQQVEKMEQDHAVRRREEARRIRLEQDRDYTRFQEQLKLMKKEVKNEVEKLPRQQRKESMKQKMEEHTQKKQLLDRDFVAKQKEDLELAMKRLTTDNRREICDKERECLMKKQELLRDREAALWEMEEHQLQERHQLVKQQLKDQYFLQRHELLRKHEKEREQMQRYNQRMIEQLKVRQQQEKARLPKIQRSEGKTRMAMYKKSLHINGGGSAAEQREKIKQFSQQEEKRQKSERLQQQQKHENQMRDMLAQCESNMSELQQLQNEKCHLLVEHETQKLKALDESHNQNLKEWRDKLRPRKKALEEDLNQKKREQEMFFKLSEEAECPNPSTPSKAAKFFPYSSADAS
Sequence of Maternal embryonic leucine zipper kinase (Homo sapiens) (Q14680 whole entry, looked up): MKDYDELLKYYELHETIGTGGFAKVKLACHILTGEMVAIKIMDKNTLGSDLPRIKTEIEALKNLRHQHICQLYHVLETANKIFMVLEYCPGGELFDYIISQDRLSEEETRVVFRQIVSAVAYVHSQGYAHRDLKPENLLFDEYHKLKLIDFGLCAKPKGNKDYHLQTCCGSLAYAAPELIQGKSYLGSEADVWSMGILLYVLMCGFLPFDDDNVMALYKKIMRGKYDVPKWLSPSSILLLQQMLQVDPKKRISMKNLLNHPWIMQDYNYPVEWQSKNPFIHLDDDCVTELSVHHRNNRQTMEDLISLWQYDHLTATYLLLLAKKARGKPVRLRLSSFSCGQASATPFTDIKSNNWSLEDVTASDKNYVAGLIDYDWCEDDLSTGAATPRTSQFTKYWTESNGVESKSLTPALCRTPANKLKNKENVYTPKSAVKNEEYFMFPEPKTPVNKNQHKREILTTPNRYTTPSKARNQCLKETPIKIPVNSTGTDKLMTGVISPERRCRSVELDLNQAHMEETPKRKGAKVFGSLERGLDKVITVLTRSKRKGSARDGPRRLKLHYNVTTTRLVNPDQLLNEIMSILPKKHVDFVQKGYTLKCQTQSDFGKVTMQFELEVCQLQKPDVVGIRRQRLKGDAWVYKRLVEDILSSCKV
Sequence of 5'-AMP-activated protein kinase catalytic subunit alpha-2 (Homo sapiens) (P54646 whole entry, looked up): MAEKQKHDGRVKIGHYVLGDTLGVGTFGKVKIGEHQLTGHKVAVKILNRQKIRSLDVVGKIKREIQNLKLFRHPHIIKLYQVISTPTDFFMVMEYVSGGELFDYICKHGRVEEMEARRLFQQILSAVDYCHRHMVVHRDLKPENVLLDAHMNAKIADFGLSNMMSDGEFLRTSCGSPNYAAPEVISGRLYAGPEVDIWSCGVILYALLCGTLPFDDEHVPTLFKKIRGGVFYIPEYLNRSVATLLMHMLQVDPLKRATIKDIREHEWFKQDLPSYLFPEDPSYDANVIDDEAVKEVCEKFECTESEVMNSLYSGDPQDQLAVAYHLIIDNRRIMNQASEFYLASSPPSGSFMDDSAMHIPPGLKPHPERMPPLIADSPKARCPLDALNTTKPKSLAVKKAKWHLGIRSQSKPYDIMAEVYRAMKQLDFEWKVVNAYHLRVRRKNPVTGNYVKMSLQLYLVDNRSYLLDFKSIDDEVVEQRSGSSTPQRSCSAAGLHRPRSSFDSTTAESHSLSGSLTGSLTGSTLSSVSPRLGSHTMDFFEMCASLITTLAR
Sequence of Fibroblast growth factor receptor 2 (Homo sapiens) (P21802 22-821 limits assumed): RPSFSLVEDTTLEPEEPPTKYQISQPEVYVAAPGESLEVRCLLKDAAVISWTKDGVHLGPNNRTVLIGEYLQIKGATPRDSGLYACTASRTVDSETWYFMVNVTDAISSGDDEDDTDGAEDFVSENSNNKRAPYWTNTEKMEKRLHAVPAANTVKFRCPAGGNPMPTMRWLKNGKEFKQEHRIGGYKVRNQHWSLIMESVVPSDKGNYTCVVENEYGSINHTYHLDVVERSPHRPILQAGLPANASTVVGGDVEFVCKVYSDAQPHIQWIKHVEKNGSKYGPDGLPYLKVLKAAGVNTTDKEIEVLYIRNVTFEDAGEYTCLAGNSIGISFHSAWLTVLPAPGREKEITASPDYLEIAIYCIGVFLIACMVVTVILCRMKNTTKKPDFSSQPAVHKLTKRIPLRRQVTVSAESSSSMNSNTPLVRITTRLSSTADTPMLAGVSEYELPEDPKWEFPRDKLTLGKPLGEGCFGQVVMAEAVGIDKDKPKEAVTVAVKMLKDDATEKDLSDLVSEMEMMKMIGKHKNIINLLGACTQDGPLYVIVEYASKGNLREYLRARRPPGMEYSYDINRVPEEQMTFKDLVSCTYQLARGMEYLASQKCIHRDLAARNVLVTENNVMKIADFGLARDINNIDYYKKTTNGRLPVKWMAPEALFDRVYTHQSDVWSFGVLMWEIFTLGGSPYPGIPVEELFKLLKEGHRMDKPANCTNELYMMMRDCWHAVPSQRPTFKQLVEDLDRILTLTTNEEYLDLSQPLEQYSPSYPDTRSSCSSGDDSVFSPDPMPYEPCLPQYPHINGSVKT
Sequence of Atypical kinase COQ8B, mitochondrial (Homo sapiens) (Q96D53 whole entry): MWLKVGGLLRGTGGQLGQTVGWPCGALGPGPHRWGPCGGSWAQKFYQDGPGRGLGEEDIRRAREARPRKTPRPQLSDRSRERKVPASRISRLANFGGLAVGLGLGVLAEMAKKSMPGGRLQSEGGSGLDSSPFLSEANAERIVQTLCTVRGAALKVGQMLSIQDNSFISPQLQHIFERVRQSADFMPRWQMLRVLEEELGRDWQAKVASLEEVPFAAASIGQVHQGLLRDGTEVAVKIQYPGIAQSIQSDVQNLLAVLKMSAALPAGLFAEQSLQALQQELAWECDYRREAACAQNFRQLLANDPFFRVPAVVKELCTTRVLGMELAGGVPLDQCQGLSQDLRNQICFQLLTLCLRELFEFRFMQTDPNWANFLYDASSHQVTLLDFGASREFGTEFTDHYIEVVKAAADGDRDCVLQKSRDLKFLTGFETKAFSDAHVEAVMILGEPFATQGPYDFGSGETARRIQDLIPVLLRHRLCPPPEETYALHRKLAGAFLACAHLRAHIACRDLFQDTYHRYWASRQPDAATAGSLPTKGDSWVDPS

SMILES: CN1C(=O)/C(=C2/C(=O)Nc3ccccc32)c2ccccc21
- Activity [1]: 100%
- Activity [2]: 100%
- Activity [3]: 79%
- Activity [4]: 89%
- Activity [5]: 100%
- Activity [6]: 51%
- Activity [7]: 90%
- Activity [8]: 88%
- Activity [9]: 90%
- Activity [10]: 100%
- Activity [11]: 81%
- Activity [12]: 100%
- Activity [13]: 99%
- Activity [14]: 100%
- Activity [15]: 78%
- Activity (MV4-11): Active
- Activity [16]: 100%
- Activity [17]: 77%
- Activity [18]: 83%
- Activity [19]: 72%
- Activity [20]: 81%
- Activity [21]: 100%
- Activity [22]: 100%
- Activity [23]: 99%
- Activity [24]: 80%
- Activity [25]: 100%
- Activity [26]: 100%
- Activity [27]: 100%
- Activity [28]: 88%
- Activity [29]: 66%
